Reference: patent US7491745B2, “Pyrrole-Type compounds, compositions and methods for treating cancer or viral disease” (Gemin X Pharmaceuticals Canada Inc., priority 2000, dated 2009)

Key:
[1] = test system: MCF-7 Breast Cancer cells; experiment: In vitro cytotoxicity assay (trypan blue), MCF-7; format: cell-based, human; conditions: for Cytoxicity (% Dead cells): MCF-7 Breast Cancer cells
Method: (§1) Normal and cancerous human breast cells were plated at a density of ˜70,000-80,000 cells/well in 24 well plates. Each test compound was added to the cell media at the indicated concentration and incubated at 37° C. in a CO2 incubator for the indicated time. Following incubation, cells were harvested and exposed to trypan blue dye; dead cells were stained exclusively (living cells remained unstained) and counted.

[2] = test system: Normal Human Breast Epithelial Cells; experiment: In vitro cytotoxicity assay (trypan blue), normal breast cells; format: cell-based; conditions: for Cytoxicity (% Dead cells): Normal Human Breast Epithelial Cells
Method: as §1

[3] = test system: MBA-MB231 Breast Cancer cells; experiment: In vitro cytotoxicity assay (trypan blue), MBA-MB231; format: cell-based, human; conditions: for Cytoxicity (% Dead cells): MBA-MB231 Breast Cancer cells, 72 h
Method: as §1

[4] = test system: Normal and cancerous human breast cells; experiment: In vitro cytotoxicity assay, selective toxicity to oncogenic cells relative to normal cells; format: cell-based; conditions: trypan blue cytotoxicity assay
Method: as §1

[5] = Body weight and survival of C33A tumor-bearing SCID mice; format: in vivo, CB17 SCID/SCID mice
Method: (§2) C33A cells were injected subcutaneously into the flanks of the female CB17 SCID/SCID mice. Each mouse was inoculated with a suspension of 2×10^6 tumor cells per 100 μl on day 0. There were ten mice in each treatment group, i.e., in the control group, the positive control group and the Compound 138T group.
(§3) Treatments started on day fourteen after C33A cells transplantation. Compound 138T was administered intravenously once daily for five consecutive days at a dose of 8 mg/kg. a solution of Compound 138T was prepared fresh daily in a vehicle solution of 5% Dextrose (Abbot Laboratories, QC, Canada) and 2% Tween20 (Sigma, St. Louis, Mo., USA). The control group was treated with vehicle alone. The injection volume for both, the Compound 138T treated group and the control group was 150 μl. The positive control group was treated once every 3 days for five times with cisplatin (Sigma, St. Louis, Mo., USA) at a dose of 4 mg/kg. Cisplatin was formulated in PBS on each day of the injection and was administered intraperitoneally in an injection volume of 80 μl.
(§4) The mice were weighed and the tumors were measured on day 13 and every 2 days after the treatment commenced. Observation continued for 40 days after initial tumor implantation. The changes in body weight and in the calculated tumor volume were plotted (FIG. 2 to 4).

[6] = test system: B16-F1 mouse melanoma cell line; experiment: Cell viability, cellular ATP levels (ViaLight), B16-F1; format: cell-based; conditions: Cell line B16-F1, Murine Melanoma, 72 hours, read-out: IC50 of Compound 138T
From the text: (§5) C33A cervical carcinoma cells, Mrc-5 normal lung fibroblasts, PC-3 human prostatic carcinoma cell line, OVCAR-3 human ovarian carcinoma cal line, H460 large cell lung cancer cell line, A549 human lung carcinoma cell line, H1299 human non-small cell lung cancer cells, MCF-7 human breast cancer cell line, SW-480 human adenocarcinoma cell line, B16-F1 mouse melanoma cell line (American Type Culture Collection, Manassas, Va. USA), HMEC normal mammary epithelial cells (Clonetics San Diego, Calif., USA) and ADR-RES human breast cancer cell line (NCI, MD, USA) were cultured in the media recommended by the American Type Culture Collection. The cells lines were plated in 96-well microtiter plates (PerkinElmer Life Sciences Inc, Boston, Mass., USA) at a density that allowed them to reach confluence after 4 days of growth. One day after plating, the cells were treated with various concentrations of Compound 138T or Compound 139T. Stock solutions of the compounds were prepared in dimethyl sulfoxide (Sigma-Aldrich Inc., St. Louis, Mo., USA), diluted in media and then added to the cells. The total dimethyl sulfoxide on the cells was 1%. After 3 days of incubation the ATP levels in the cells were quantified using the luminescent ViaLight detection system (Bio-Whittaker, Md., USA). The results were plotted relative to untreated control cells, which were set at 100 (FIG. 1).

[7] = test system: A549 human lung carcinoma cell line; experiment: Cell viability, cellular ATP levels (ViaLight), A549; format: cell-based; conditions: Cell line A549, NSCL-aden, 72 hours, read-out: IC50 of Compound 138T
From the text: as §5

[8] = test system: MCF-7 human breast cancer cell line; experiment: Cell viability, cellular ATP levels (ViaLight), MCF-7; format: cell-based; conditions: MCF7, Cell line MCF-7, Breast, 72 hours, read-out: IC50 of Compound 138T
From the text: as §5

[9] = test system: PC-3 human prostatic carcinoma cell line; experiment: Cell viability, cellular ATP levels (ViaLight), PC-3; format: cell-based; conditions: Cell line PC-3, Prostate, 72 hours, read-out: IC50 of Compound 138T
From the text: as §5

[10] = test system: C33A cervical carcinoma cells; experiment: Cell viability, cellular ATP levels (ViaLight), C33A; format: cell-based, human; conditions: 72 hours; for effect on ATP levels in C33A cancer cell line compared with HMEC and MRC-5 normal cells (FIG. 1): 0.05 μM
From the text: as §5

[11] = test system: SW-480 human adenocarcinoma cell line; experiment: Cell viability, cellular ATP levels (ViaLight), SW-480; format: cell-based; conditions: SW480, Cell line SW-480, Colorectal, 72 hours, read-out: IC50 of Compound 138T
From the text: as §5

[12] = test system: OVCAR-3 human ovarian carcinoma cal line; experiment: Cell viability, cellular ATP levels (ViaLight), OVCAR-3; format: cell-based; conditions: Cell line OVCAR-3, Ovary, 72 hours, read-out: IC50 of Compound 138T
From the text: as §5

[13] = test system: HMEC normal mammary epithelial cells; experiment: Cell viability, cellular ATP levels (ViaLight), HMEC; format: cell-based; conditions: 72 hours
From the text: as §5

[14] = test system: H460 large cell lung cancer cell line; experiment: Cell viability, cellular ATP levels (ViaLight), H460; format: cell-based; conditions: Homo sapiens, NCI-H460, Cell line H460, NSCL-LC, 72 hours, read-out: IC50 of Compound 138T
From the text: as §5

[15] = test system: human cervical cancer C33A; experiment: Antitumor activity in vivo, C33A tumors in SCID mice (tumor volume); set-up: species or system CB17 SCID/SCID mice
Method: The C33A human cervical cancer cells were maintained in RPMI (Hyclone, Utah, USA) supplemented with 10% inactivated fetal bovine serum (Bio-Whittaker, Md., USA) and 1% penicillin-streptomycin-L-Glutamine (Gibco, N.Y., USA), under 5% CO2 at 37° C., and passaged twice a week. The cells were grown at a confluency lower than 70% and than collected with Trypsin (Bio-Whittaker, Md., USA). Cells were then centrifuged and washed two time in phosphate buffer solution (PBS) and resuspended in PBS at 2×10^6 cells per 100 μl. Viability was examined by staining with trypan blue (Gibco, N.Y., USA) and only flasks with cell viability greater than 95% were used for in vivo studies.
as §2, §3, §4

[16] = test system: H1299 human non-small cell lung cancer cells; experiment: Cell viability, cellular ATP levels (ViaLight), H1299; format: cell-based; conditions: NCI-H1299, Cell line H1299, NSCL-LC, 72 hours, read-out: IC50 of Compound 138T
From the text: as §5

[17] = test system: ADR-RES human breast cancer cell line; experiment: Cell viability, cellular ATP levels (ViaLight), ADR-RES; format: cell-based; conditions: Cell line NCI/ADR-RES, Breast (Mutli-drug resistant), 72 hours, read-out: IC50 of Compound 138T
From the text: as §5

[18] = 8 mg/kg intravenously once daily for five consecutive days from day fourteen

## CCCCC1CCCCCCc2cc1c(/C=C1\N=C(c3ccc[nH]3)C=C1OC)[nH]2 (stereo not shown) [Butyl-meta-cycloheptylprodiginine, 2-Butyl-11-((3-methoxy-5-(1H-pyrrol-2-yl)-2H-pyrrol-2-ylidene)methyl)-10-azabicyclo[7.2.1]dodeca-9(12),11-diene]
[1]; 0.25 mM concentration (Table 10), first cancer cell value, MCF-7 in Table 10
  cell death in cancer cells: 70%
[1]; 0.25 μM, 72 h
  Cytoxicity (% Dead cells): 70%
[1]; 1.0 μM, 72 h
  Cytoxicity (% Dead cells): 100%
[1]; 2.0 μM, 72 h
  Cytoxicity (% Dead cells): 100%
[2]; 0.25 mM concentration (Table 10)
  cell death in normal cells: 5%
[2]; 0.25 μM, 72 h
  Cytoxicity (% Dead cells): 5%
[2]; 1.0 μM, 72 h
  Cytoxicity (% Dead cells): 5%
[2]; 2.0 μM, 72 h
  Cytoxicity (% Dead cells): 15%
[3]; 0.25 mM concentration (Table 10), second cancer cell value, MBA-MB231 in Table 10
  cell death in cancer cells: 64%
[3]; 0.25 μM
  Cytoxicity (% Dead cells): 64%
[3]; 1.0 μM
  Cytoxicity (% Dead cells): 100%
[3]; 2.0 μM
  Cytoxicity (% Dead cells): 100%
[4]
  selective toxicity to breast cancer cells relative to normal human breast epithelial cells: selectively killed the breast cancer cells

## COC1=CC(c2ccc[nH]2)=NC1=Cc1[nH]c(C)cc1C [Compound 138T, 5′-(3,5-Dimethyl-1H-pyrrol-2-ylmethylene)-4′-methoxy-1H,5′H-[2,2′]bipyrrolyl]
[5]; 8 mg/kg intravenously once daily for five consecutive days, day 22
  weight loss: 10%
[6]
  IC50: 20 nM
[7]
  IC50: 80 nM
[8]
  IC50: 70 nM
[9]
  IC50: 50 nM
[10]
  effect on ATP levels in C33A cancer cell line compared with HMEC and MRC-5 normal cells (FIG. 1): significantly more effective at lowering ATP levels in C33A cancer cell line
[10]; Homo sapiens, C-33-A, Cell line C3AA, Cervix, ATP levels, read-out: IC50 of Compound 138T
  IC50: 30 nM
[11]
  IC50: 50 nM
[12]
  IC50: 30 nM
[13]; ten cancer cell lines
  effect on ATP levels in cancer cell lines compared with normal HMEC cell line: significantly more effective at lowering ATP levels in all the cancer cell lines
[13]; Homo sapiens, Cell line HMEC, Normal Breast, ATP levels, read-out: IC50 of Compound 138T
  IC50: 2000 nM
[14]
  IC50: 60 nM
[15]; 8 mg/kg intravenously once daily for five consecutive days
  effect on human cervical tumors implanted in SCID mice: significantly reduces the human cervical tumors implanted in SCID mice
[15]; [18]
  tumor volume curve versus control, values in standard error of the mean (FIG. 4): significantly different from control curve for a longer period of time, until day 39
  tumor volume versus control, values expressed in 95% confidence interval (FIG. 3): significantly less than control until day 29
[15]; 8 mg/kg intravenously once daily for five consecutive days, cisplatin 4 mg/kg intraperitoneally
  tumor volume curve compared with the cisplatin treated group: follows the tumor volume curve of the cisplatin treated group until day 39
[16]
  IC50: 70 nM
[17]
  IC50: 70 nM

## CCCCc1cc(C)c(C=C2N=C(c3ccc[nH]3)C=C2OC)[nH]1 [Compound 139T, 5′-(5-Butyl-3-methyl-1H-pyrrol-2-ylmethylene)-4′-methoxy-1H,5′H-[2,2′]bipyrrolyl]
[10]
  effect on ATP levels in C33A cancer cell line compared with HMEC and MRC-5 normal cells (FIG. 1): significantly more effective at lowering ATP levels in C33A cancer cell line

## N.N.[Cl][Pt][Cl] [cisplatin]
[5]; 4 mg/kg intraperitoneally once every 3 days for five times, day 29
  weight loss: 28%
[5]; 4 mg/kg intraperitoneally once every 3 days for five times, days 29 and 32, ten mice per group
  mice died in treated group: Two

## Ethyl-meta-cyclononylprodiginine
[1]; 0.2 μM, 24 h
  Cytoxicity (% Dead cells): 45%
[1]; 1.0 μM, 24 h
  Cytoxicity (% Dead cells): 62%
[1]; 2.0 μM, 24 h
  Cytoxicity (% Dead cells): 65%
[2]; 0.2 μM, 24 h
  Cytoxicity (% Dead cells): 10%
[2]; 1.0 μM, 24 h
  Cytoxicity (% Dead cells): 9%
[2]; 2.0 μM, 24 h
  Cytoxicity (% Dead cells): 15%
